# From patent US20250042881A1, “CCR6 RECEPTOR MODULATORS” (Idorsia Pharmaceuticals Ltd, priority 2021, published 2025)
# Biological target: T1, human CCR6 (Homo sapiens, UniProt P51684)
# T1 construct: expressed in transfected cells; host or cells: HEK-293
# T1 sequence (P51684 1-374): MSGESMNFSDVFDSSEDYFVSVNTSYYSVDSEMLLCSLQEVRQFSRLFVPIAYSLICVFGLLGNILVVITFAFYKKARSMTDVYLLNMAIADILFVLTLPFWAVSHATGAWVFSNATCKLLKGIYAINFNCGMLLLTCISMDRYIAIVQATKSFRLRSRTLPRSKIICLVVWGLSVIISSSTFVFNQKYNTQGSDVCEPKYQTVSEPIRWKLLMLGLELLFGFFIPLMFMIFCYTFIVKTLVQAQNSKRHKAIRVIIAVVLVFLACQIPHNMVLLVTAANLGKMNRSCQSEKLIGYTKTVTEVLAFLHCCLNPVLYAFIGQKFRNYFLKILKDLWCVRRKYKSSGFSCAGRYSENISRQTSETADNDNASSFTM
# Assay: FLIPR assay: inhibition of CCL20-induced calcium signal in HEK-293 cells expressing human CCR6
# Format: cell-based
# Settings: engineered HEK-293 cells expressing human CCR6; agonist CCL20 10 nM; 30 min preincubation; Fluo-8-AM; mean values if determined several times
# Protocol: FLIPR assay: The bioactivity of compounds is tested in a fluorometric imaging plate reader (FLIPR: Molecular Devices) using engineered HEK-293 cells expressing the human CCR6 (GenBank: AY242126). Frozen cells are plated on Poly-L-Lysine precoated 384-well plates 2 days prior to bioassay in DMEM medium supplemented with 10% FCS and 1% Penicillin-Streptomycin. At the day of bioassay, cell supernatant is discarded and cells are dye loaded for 30 minutes at room temperature in the dark with Fluo-8-AM (Focus Biomolecules) in Hanks Balanced Salt Solution (Gibco), buffered with 20 mM Hepes at pH 6.75 and supplemented with 0.05% BSA. This buffer, but lacking the dye, is also used for washing and compound dilution steps (assay buffer). Cells are washed free of excess dye with a wash-station (Biotek), leaving 40 microliter of assay buffer at the end. Cells were incubated for 15 minutes at room temperature in the dark, before adding compounds. Stock solutions of test compounds are made up at a concentration of 10 mM in DMSO, and serially diluted first in DMSO and then transferred in assay buffer to concentrations required for inhibition dose response curves. After a 45 minute incubation period in assay buffer at room temperature, 10 microliters of each compound dilution are transferred from a compound plate to the plate containing the recombinant cells in the FLIPR instrument according to the manufacturer's instructions. After cells and compounds were preincubated for 30 minutes at room temperature in the dark, 10 microliter agonist CCL20 (Peprotech) at a final concentration of 10 nM is added, again using the FLIPR instrument. Changes in fluorescence are monitored before and after addition of the test compounds and agonist. Emission peak values above base level after CCL20 addition are exported after base line subtraction. The calculated IC50 values may fluctuate depending on the daily assay performance. Fluctuations of this kind are known to those skilled in the art. In the case where IC50 values have been determined several times for the same compound, mean values are given.
row,Compound,IC50 [nM]
1,"CC(C)c1ccc([C@](O)(c2cncc(-c3nc(C4CCNC(=O)C4)n(C(C)C)n3)c2)C2(C)CN(C)C2)cc1 (stereo partly drawn) [Example 46, 4-(5-{5-[(R)-(1,3-Dimethyl-azetidin-3-yl)-hydroxy-(4-isopropyl-phenyl)-methyl]-pyridin-3-yl}-2-isopropyl-2H-[1,2,4]triazol-3-yl)-piperidin-2-one]",161
2,"CC(C)c1ccc([C@](O)(c2cncc(-c3nc(C4CCN(C(=O)CO)CC4)n(C(C)C)n3)c2)C2(C)CN(C)C2)cc1 [Example 44, 1-[4-(5-{5-[(R)-(1,3-Dimethyl-azetidin-3-yl)-hydroxy-(4-isopropyl-phenyl)-methyl]-pyridin-3-yl}-2-isopropyl-2H-[1,2,4]triazol-3-yl)-piperidin-1-yl]-2-hydroxy-ethanone]",199
3,"COCCn1nc(-c2cncc([C@@](O)(c3ccc(C(C)C)cc3)C3(C)CN(C)C3)c2)nc1C1CCOCC1 [Example 48, (R)-(1,3-Dimethyl-azetidin-3-yl)-(4-isopropyl-phenyl)-{5-[1-(2-methoxy-ethyl)-5-(tetrahydro-pyran-4-yl)-1H-[1,2,4]triazol-3-yl]-pyridin-3-yl}-methanol]",170
4,"CC(=O)N1CCC(c2nc(-c3cncc([C@@](O)(c4ccc(C(C)C)cc4)C4(C)CN(C)C4)c3)nn2C2CC2)CC1 [Example 32, 1-[4-(2-Cyclopropyl-5-{5-[(R)-(1,3-dimethyl-azetidin-3-yl)-hydroxy-(4-isopropyl-phenyl)-methyl]-pyridin-3-yl}-2H-[1,2,4]triazol-3-yl)-piperidin-1-yl]-ethanone]",181
5,"CC(C)c1ccc([C@](O)(c2cncc(-c3nc(C4CCOCC4)n(C4CC4)n3)c2)C2(C)CN(C)C2)cc1 [Example 14, (R)-{5-[1-Cyclopropyl-5-(tetrahydro-pyran-4-yl)-1H-[1,2,4]triazol-3-yl]-pyridin-3-yl}-(1,3-dimethyl-azetidin-3-yl)-(4-isopropyl-phenyl)-methanol]",118
6,"CC(C)c1ccc([C@](O)(c2cncc(-c3nc(C4CCOCC4)n(C4CC4)n3)c2)C2(C)CN(CCO)C2)cc1 [Example 36, 2-{3-[(R)-{5-[1-Cyclopropyl-5-(tetrahydro-pyran-4-yl)-1H-[1,2,4]triazol-3-yl]-pyridin-3-yl}-hydroxy-(4-isopropyl-phenyl)-methyl]-3-methyl-azetidin-1-yl}-ethanol]",116
7,"CNC(C)(C)c1nc(-c2cncc([C@@](O)(c3ccc(C(C)C)cc3)C3(C)CN(C)C3)c2)nn1C1CC1 [Example 11, (R)-{5-[1-Cyclopropyl-5-(1-methyl-1-methylamino-ethyl)-1H-[1,2,4]triazol-3-yl]-pyridin-3-yl}-(1,3-dimethyl-azetidin-3-yl)-(4-isopropyl-phenyl)-methanol]",519
8,"CCn1nc(-c2cncc([C@@](O)(c3ccc(C(C)C)cc3)C3(C)CN(C)C3)c2)nc1C1CCOCC1 [Example 18, (R)-(1,3-Dimethyl-azetidin-3-yl)-{5-[1-ethyl-5-(tetrahydro-pyran-4-yl)-1H-[1,2,4]triazol-3-yl]-pyridin-3-yl}-(4-isopropyl-phenyl)-methanol]",166
9,"CC(C)c1ccc([C@](O)(c2cncc(-c3nc(C4CCOCC4)n(C)n3)c2)C2(C)CN(C)C2)cc1 [Example 16, (R)-(1,3-Dimethyl-azetidin-3-yl)-(4-isopropyl-phenyl)-{5-[1-methyl-5-(tetrahydro-pyran-4-yl)-1H-[1,2,4]triazol-3-yl]-pyridin-3-yl}-methanol]",221
10,"CC(C)c1ccc([C@](O)(c2cncc(-c3nc(C4(C)CCNC(=O)C4)n(C(C)C)n3)c2)C2(C)CN(C)C2)cc1 (stereo partly drawn) [Example 45, 4-(5-{5-[(R)-(1,3-Dimethyl-azetidin-3-yl)-hydroxy-(4-isopropyl-phenyl)-methyl]-pyridin-3-yl}-2-isopropyl-2H-[1,2,4]triazol-3-yl)-4-methyl-piperidin-2-one]",193

# Stronger by IC50, values ahead:
row,IC50 [nM],Compound
1,86.3,"CC(C)c1ccc([C@](O)(c2cncc(-c3nc(C4(O)CCOCC4)n(C(C)C)n3)c2)C2(C)CN(C)C2)cc1 [Example 31, 4-(5-{5-[(R)-(1,3-Dimethyl-azetidin-3-yl)-hydroxy-(4-isopropyl-phenyl)-methyl]-pyridin-3-yl}-2-isopropyl-2H-[1,2,4]triazol-3-yl)-tetrahydro-pyran-4-ol]"
2,22.2,"CC(C)c1ccc([C@](O)(c2cncc(-c3nc([C@@](C)(O)C(F)(F)F)n(C4CC4)n3)c2)C2(C)CN(C)C2)cc1 [Example 9, (R)-2-(2-Cyclopropyl-5-{5-[(R)-(1,3-dimethyl-azetidin-3-yl)-hydroxy-(4-isopropyl-phenyl)-methyl]-pyridin-3-yl}-2H-[1,2,4]triazol-3-yl)-1,1,1-trifluoro-propan-2-ol]"
3,98.1,"CC(C)c1ccc([C@](O)(c2cncc(-c3nc(C4(O)CCOCC4)n(C4CC4)n3)c2)C2(C)CN(C)C2)cc1 [Example 30, 4-(2-Cyclopropyl-5-{5-[(R)-(1,3-dimethyl-azetidin-3-yl)-hydroxy-(4-isopropyl-phenyl)-methyl]-pyridin-3-yl}-2H-[1,2,4]triazol-3-yl)-tetrahydro-pyran-4-ol]"
4,78.1,"CC(C)c1ccc([C@](O)(c2cncc(-c3nc(C4CCOCC4)n(C4CC4)n3)c2)C2(C)CN(C)C2)cc1F [Example 38, (R)-{5-[1-Cyclopropyl-5-(tetrahydro-pyran-4-yl)-1H-[1,2,4]triazol-3-yl]-pyridin-3-yl}-(1,3-dimethyl-azetidin-3-yl)-(3-fluoro-4-isopropyl-phenyl)-methanol]"
5,37.3,"CC(C)c1ccc([C@](O)(c2cncc(-c3nc(C4CCOCC4)n(C4CCCC4)n3)c2)C2(C)CN(C)C2)cc1 [Example 20, (R)-{5-[1-Cyclopentyl-5-(tetrahydro-pyran-4-yl)-1H-[1,2,4]triazol-3-yl]-pyridin-3-yl}-(1,3-dimethyl-azetidin-3-yl)-(4-isopropyl-phenyl)-methanol]"
6,16.8,"CC(C)c1ccc([C@](O)(c2cncc(-c3nc(C4CCOCC4)n(C4CCCCC4)n3)c2)C2(C)CN(C)C2)cc1 [Example 15, (R)-{5-[1-Cyclohexyl-5-(tetrahydro-pyran-4-yl)-1H-[1,2,4]triazol-3-yl]-pyridin-3-yl}-(1,3-dimethyl-azetidin-3-yl)-(4-isopropyl-phenyl)-methanol]"
7,76.6,"CC(C)c1ccc([C@](O)(c2cnc(F)c(-c3nc([C@H]4CC[C@H](O)CC4)n(C4CC4)n3)c2)C2(C)CN(C)C2)cc1 [Example 39, 4-(2-Cyclopropyl-5-{5-[(R)-(1,3-dimethyl-azetidin-3-yl)-hydroxy-(4-isopropyl-phenyl)-methyl]-2-fluoro-pyridin-3-yl}-2H-[1,2,4]triazol-3-yl)-trans-cyclohexanol]"
8,43.9,"COC(=O)C12CCC(c3nc(-c4cncc([C@@](O)(c5ccc(C(C)C)cc5)C5(C)CN(C)C5)c4)nn3C3CC3)(CC1)CC2 [Example 10, 4-(2-Cyclopropyl-5-{5-[(R)-(1,3-dimethyl-azetidin-3-yl)-hydroxy-(4-isopropyl-phenyl)-methyl]-pyridin-3-yl}-2H-[1,2,4]triazol-3-yl)-bicyclo[2.2.2]octane-1-carboxylic acid methyl ester]"
9,39.9,"CC(C)c1ccc([C@](O)(c2cncc(-c3nc(C4CCOCC4)n(C(C)(C)C)n3)c2)C2(C)CN(C)C2)cc1 [Example 21, (R)-{5-[1-tert-Butyl-5-(tetrahydro-pyran-4-yl)-1H-[1,2,4]triazol-3-yl]-pyridin-3-yl}-(1,3-dimethyl-azetidin-3-yl)-(4-isopropyl-phenyl)-methanol]"
10,98.5,"CC(C)c1ccc([C@](O)(c2cncc(-c3nc([C@H]4CC[C@H](O)CC4)n(C4CC4)n3)c2)C2(C)CN(C)C2)cc1 [Example 8, trans-4-(2-Cyclopropyl-5-{5-[(R)-(1,3-dimethyl-azetidin-3-yl)-hydroxy-(4-isopropyl-phenyl)-methyl]-pyridin-3-yl}-2H-[1,2,4]triazol-3-yl)-cyclohexanol]"
11,72.6,"CC(C)c1ccc([C@](O)(c2cncc(-c3nc(C4CCOCC4)n(C4CC4)n3)c2)C2(C)CN(CC(F)F)C2)cc1 [Example 35, (R)-{5-[1-Cyclopropyl-5-(tetrahydro-pyran-4-yl)-1H-[1,2,4]triazol-3-yl]-pyridin-3-yl}-[1-(2,2-difluoro-ethyl)-3-methyl-azetidin-3-yl]-(4-isopropyl-phenyl)-methanol]"
